Test results published in PMC5298233, “Substrate-analogous inhibitors exert antimalarial action by targeting the Plasmodium lactate transporter PfFNT at nanomolar scale” (PLoS Pathogens, 2017).
Read-outs that look alike come from different tables or passages of the source.

What was measured:
[1] = tested on: P. falciparum 3D7; assay: Viability of cultured P. falciparum parasites (FACS parasitemia); format: cell-based, Plasmodium falciparum; settings: for IC50: Plasmodium falciparum, 3D7, 48 h, read-out: IC50 (P. falciparum 3D7)
[2] = biological target: T1, PfFNT (Plasmodium falciparum, UniProt O77389); assay: cell-based
[3] = tested on: MMV007839 resistant 3D7 parasites; assay: microbe, parasite or virus in culture; format: cell-based, Plasmodium falciparum; settings: for IC50: Plasmodium falciparum, 3D7, read-out: IC50 (P. falciparum resist.)
[4] = biological target: T1, PfFNT; assay: cell-based; settings: for hit identification: inhibition of PfFNT transport at 10 μM: 1 mM substrate gradient, compound added 20 min prior; for inhibition at 10 µM: read-out: % Inhib.
[5] = biological target: T2, rat MCT1 (Rattus norvegicus, UniProt P53987); assay: L-lactate transport inhibition of MCT1 expressed in yeast; format: cell-based
T2 sequence (P53987 1-494): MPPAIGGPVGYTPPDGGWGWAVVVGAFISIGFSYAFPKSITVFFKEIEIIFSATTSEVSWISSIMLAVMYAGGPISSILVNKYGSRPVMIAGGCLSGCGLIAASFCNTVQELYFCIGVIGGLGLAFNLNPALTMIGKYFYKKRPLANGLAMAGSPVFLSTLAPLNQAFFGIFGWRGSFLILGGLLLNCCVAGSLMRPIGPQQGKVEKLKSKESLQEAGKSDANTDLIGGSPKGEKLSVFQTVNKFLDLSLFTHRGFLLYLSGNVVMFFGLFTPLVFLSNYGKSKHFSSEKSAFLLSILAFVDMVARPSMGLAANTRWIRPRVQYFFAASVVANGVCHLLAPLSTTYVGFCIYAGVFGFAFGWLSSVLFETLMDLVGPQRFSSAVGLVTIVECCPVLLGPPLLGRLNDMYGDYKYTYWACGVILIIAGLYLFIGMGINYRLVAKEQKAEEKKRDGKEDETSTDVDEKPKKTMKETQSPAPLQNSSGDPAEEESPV

[6] = biological target: T3, BbFNT (Babesia bovis, UniProt A7AX62); assay: cell-based; settings: wildtype BbFNT; read-out: IC50 (BbFNT / yeast)
T3 sequence (A7AX62 1-279): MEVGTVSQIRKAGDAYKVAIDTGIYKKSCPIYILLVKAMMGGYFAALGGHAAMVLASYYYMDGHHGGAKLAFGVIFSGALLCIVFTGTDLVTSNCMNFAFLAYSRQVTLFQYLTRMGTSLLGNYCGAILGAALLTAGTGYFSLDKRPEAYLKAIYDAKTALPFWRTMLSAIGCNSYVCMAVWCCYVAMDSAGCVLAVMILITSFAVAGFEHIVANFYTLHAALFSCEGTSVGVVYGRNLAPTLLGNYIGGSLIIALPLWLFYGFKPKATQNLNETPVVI

[7] = biological target: T4, BbFNT S93G (Babesia bovis, UniProt A7AX62, S93G); assay: cell-based; settings: read-out: IC50 (BbFNT S93G / yeast)
T4 sequence (A7AX62 1-279 S93G): T3 sequence (A7AX62 1-279)

[8] = biological target: T1, PfFNT; settings: earlier determined; read-out: affinity of lactate to PfFNT (Km); cited from earlier work
[9] = biological target: T1, PfFNT; settings: read-out: IC50 on PfFNT; cited from earlier work
[10] = IC50 (PfFNT / yeast), 20 min incubation with compound, 1 mM L-lactate
[11] = IC50 (PfFNT / yeast), half-maximal lactate transport rate, 20 min treatment

T1 sequence (O77389 whole entry): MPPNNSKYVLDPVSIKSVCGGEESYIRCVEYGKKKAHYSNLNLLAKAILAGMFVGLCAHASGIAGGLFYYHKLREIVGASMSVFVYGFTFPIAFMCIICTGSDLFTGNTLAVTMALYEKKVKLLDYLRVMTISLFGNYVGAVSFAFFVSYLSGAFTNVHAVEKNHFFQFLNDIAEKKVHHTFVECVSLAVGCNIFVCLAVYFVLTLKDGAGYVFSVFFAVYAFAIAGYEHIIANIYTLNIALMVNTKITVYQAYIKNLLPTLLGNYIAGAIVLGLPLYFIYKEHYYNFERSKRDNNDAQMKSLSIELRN

| SMILES | IC50 [1] [µM] | IC50 [2, 10] [µM] | further results |
| --- | --- | --- | --- |
| CCO/C(=C\C(=O)c1ccc(OC)cc1)C(F)(F)C(F)(F)F [BH-296 ethyl ester prodrug] | 9.3 ± 1.4 |  |  |
| COc1ccc(C(=O)/C=C(\O)C(F)(F)C(F)(F)F)cc1 [BH-296] | 3.6 ± 0.2 | 0.14 ± 0.01 | less efficient in P. falciparum culture ([1]; compared with PfFNT block in yeast / MMV007839): 25 times; shift in IC50, resistant versus non-resistant parental parasites [3]: 2.5 fold; IC50 [3]: 8.6 µM |
| O=C1CC(O)(C(F)(F)C(F)(F)F)Oc2ccccc21 (stereo not drawn) [MMV000972] | 1.7 |  | IC50 [2, 11]: 0.17 µM; hit identification: inhibition of PfFNT transport at 10 μM [4]: fully blocked; inhibition at 10 µM [4]: 102% |
| COc1ccc2c(c1)OC(O)(C(F)(F)C(F)(F)F)CC2=O (stereo not drawn) [MMV007839] |  |  | Ki [2]: 1.4 µM; IC50 [2, 11]: 0.17 µM; IC50 ([2]; IC50 (PfFNT / yeast; 24 h treatment), compound added 24 h before the assay, last 18 h at 4°C): 0.015 µM; higher affinity than the physiological substrate lactate ([2]; Ki versus lactate Km): > 60,000 times; re-gain of PfFNT transport activity after removal of inhibitor (dissociation) ([2]; full and half-maximal inhibition, wash-out, up to 2 h): does not re-gain activity within 2 h; reduction of parasite growth ([1]; incubation at IC90 over night): 70%; reduction of parasite growth ([1]; short period incubation at IC90 for 1 h): 17%; IC50 [5]: 55 µM; IC50 [3]: 35 µM; IC50 [6]: 150 µM; IC50 [7]: 11 µM; hit identification: inhibition of PfFNT transport at 10 μM [4]: fully blocked; inhibition at 10 µM [4]: 99.1% |
| CC(=O)C=C(O)C(F)(F)C(F)(F)F [Pharmacophore, 5,5,6,6,6-pentafluoro-4-hydroxyhex-3-en-2-one] |  | 1.9 |  |
| COc1ccc2c(=O)cc(C(F)(F)C(F)(F)F)oc2c1 [[1]] |  | > 1000 |  |
| COc1ccc2c(c1)OC(C)(C)CC2=O [[2]] |  | > 1000 |  |
| O=C1CC(O)(C(F)(F)C(F)F)Oc2ccc(Cl)cc21 (stereo not drawn) [[3]] |  | 48 ± 2 |  |
| COc1ccc2c(c1)C(=O)CC(O)(C(F)F)O2 (stereo not drawn) [[4]] |  | > 1000 |  |
| COc1ccc2c(c1)OC(O)(C(F)(F)C(F)(F)F)C(C)C2=O (stereo not drawn) [[5]] |  | 145 ± 8 |  |
| O/N=C1\CC(O)(C(F)(F)F)Oc2ccc(Cl)cc21 (stereo not drawn) [[6]] |  | 315 ± 63 |  |
| O=C1CC(O)(C(F)F)Oc2ccccc21 (stereo not drawn) [[7]] |  | 280 ± 32 |  |
| COc1ccc2c(c1)OC(O)(C(F)(F)F)CC2=O (stereo not drawn) [[8]] |  | 1.1 ± 0.1 |  |
| COc1ccc2c(c1)OC(O)(C(F)(F)C(F)F)CC2=O (stereo not drawn) [[9]] |  | 0.36 ± 0.4 |  |
| COc1ccc2c(c1)OC(O)(C(F)(F)C(F)(F)C(F)(F)F)CC2=O (stereo not drawn) [[10]] | 0.47 ± 0.1 | 0.25 ± 0.02 |  |
| O=C1CC(O)(C(F)(F)C(F)(F)C(F)(F)C(F)(F)F)Oc2ccccc21 (stereo not drawn) [[11]] |  | 4.9 ± 0.2 |  |
| O=C1CC(O)(C(F)(F)C(F)(F)F)Oc2cc(Cl)ccc21 (stereo not drawn) [[12]] | 0.28 ± 0.05 | 0.12 ± 0.01 |  |
| CCOc1ccc2c(c1)OC(O)(C(F)(F)C(F)(F)F)CC2=O (stereo not drawn) [[13]] | 0.05 | 0.24 ± 0.01 |  |
| CC(C)Oc1ccc2c(c1)OC(O)(C(F)(F)C(F)(F)F)CC2=O (stereo not drawn) [[14]] | 0.1 | 0.4 ± 0.01 |  |
| O=C1CC(O)(C(F)(F)C(F)(F)F)Oc2cc(OCc3ccccc3)ccc21 (stereo not drawn) [[15]] |  | 0.88 ± 0.03 |  |
| CC(O)C(=O)O (stereo not drawn) [lactate] |  |  | Km [8]: 87 mM |
| O=C(O)c1cccnc1Nc1cccc(C(F)(F)F)c1 [niflumic acid] |  |  | IC50 [9]: > 100 µM |
